The text below walks through data of ChEMBL document CHEMBL3813657, “Bacterial Peptide deformylase inhibition of cyano substituted biaryl analogs: Synthesis, in vitro biological evaluation, molecular docking study and in silico ADME prediction” (Bioorg Med Chem, 2016).

For assay [1], the target named is T1, Peptide deformylase (Escherichia coli, UniProt Q9JN24).
T1 sequence (Q9JN24 whole entry): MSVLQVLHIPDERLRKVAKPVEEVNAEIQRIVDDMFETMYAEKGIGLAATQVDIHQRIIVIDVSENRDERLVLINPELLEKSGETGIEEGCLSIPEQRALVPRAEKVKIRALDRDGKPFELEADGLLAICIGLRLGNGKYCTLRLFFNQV
As to the kind of experiment: Inhibition of NiCl2 stabilized Escherichia coli NCIM-2931 peptide deformylase using N-formyl-Met-Ala as substrate incubated for 30 mins by spectrophotometric method.

Another assay has as its system Escherichia coli. As to the kind of experiment: Antibacterial activity against Escherichia coli NCIM-2256 after 24 hrs by two fold serial dilution method. Type of assay: functional. The following applies: NCIM-2256, 24 h.
For the next assay, the system named is Bacillus subtilis. The assay is described as follows: Antibacterial activity against Bacillus subtilis NCIM-2063 after 24 hrs by two fold serial dilution method. The class given is functional. Particulars: NCIM-2063, 24 h.
In assay [2] the target is T1, Peptide deformylase. The assay is described as follows: Inhibition of Escherichia coli peptide deformylase.

By pIC50 is commonly meant the IC50 on a negative log10 scale, so that one unit is a factor of ten. A low value points to a high IC50. Usually MIC stands for the least concentration at which growth counts as inhibited. A low value points to greater potency.

pIC50: −log10 of the molar value. ≈ marks a conversion by molar mass, not a printed value.

With `N#Cc1ccccc1-c1ccc(CNc2cccc(C(F)(F)F)c2)cc1`, the pIC50 against Peptide deformylase [1] was 4.68. Also, the MIC in the assay with Escherichia coli was 42.5 µg/mL (≈ 121 µM); against Bacillus subtilis it was 25.8 µg/mL (≈ 73.3 µM).

At Peptide deformylase [1], `N#Cc1ccccc1-c1ccc(CNn2cnnc2)cc1` gave a pIC50 of 4.29. Further, the values for the MIC in the assay with Escherichia coli and against Bacillus subtilis were 36.5 µg/mL (≈ 133 µM) and 23.8 µg/mL (≈ 86.3 µM), respectively.

As to `N#Cc1ccccc1-c1ccc(CNc2ccccc2[N+](=O)[O-])cc1`, the pIC50 against Peptide deformylase [1] was 4.81. The MIC in the assay on Escherichia coli turned out to be 28.5 µg/mL (≈ 86.5 µM); against Bacillus subtilis, 23.8 µg/mL (≈ 72.1 µM).

At Peptide deformylase [1], `N#Cc1ccccc1-c1ccc(CNc2cnccn2)cc1` gave a pIC50 of 4.72. For the same compound, the MIC against Escherichia coli was determined as 16.9 µg/mL (≈ 59.1 µM); with Bacillus subtilis, 7.66 µg/mL (≈ 26.8 µM).

The compound `N#Cc1ccccc1-c1ccc(CNc2cccc([N+](=O)[O-])c2)cc1` had a negative logarithm of the IC50 (pIC50) against Peptide deformylase [1] of 4.60. The MIC with Escherichia coli was determined as 40.9 µg/mL (≈ 124 µM); in the assay on Bacillus subtilis, 29.3 µg/mL (≈ 89.1 µM).

At Peptide deformylase [1], `N#Cc1ccccc1-c1ccc(CNc2ccc(C(F)(F)F)cc2)cc1` showed a pIC50 of 4.47. Further, the MIC with Escherichia coli was determined as 35.5 µg/mL (≈ 101 µM); in the assay on Bacillus subtilis, 34.4 µg/mL (≈ 97.7 µM).

`N#Cc1ccccc1-c1ccc(CNc2ccc(N3CCOCC3)c(F)c2)cc1` had a pIC50 against Peptide deformylase [1] of 4.37. For the same compound, the MIC worked out at 37.3 µg/mL (≈ 96.3 µM) against Escherichia coli and 21.6 µg/mL (≈ 55.7 µM) against Bacillus subtilis.

Turning to `N#Cc1ccccc1-c1ccc(CNc2ccccc2O)cc1`, the pIC50 at Peptide deformylase [1] is 4.48. Moreover, the MIC against Escherichia coli came out at 39.6 µg/mL (≈ 132 µM); in the assay with Bacillus subtilis, 29.3 µg/mL (≈ 97.6 µM).

At Peptide deformylase [1], `N#Cc1ccccc1-c1ccc(CNc2ccccc2)cc1` showed a pIC50 of 4.88. Further, the MIC against Escherichia coli came out at 15.8 µg/mL (≈ 55.7 µM); in the assay with Bacillus subtilis, 11 µg/mL (≈ 38.7 µM).

With `N#Cc1ccccc1-c1ccc(CNc2ccc(O)cc2)cc1`, at Peptide deformylase [1], the pIC50 was 4.46. In addition, the MIC is 33.6 µg/mL (≈ 112 µM) against Escherichia coli and 28.3 µg/mL (≈ 94.3 µM) against Bacillus subtilis.

Regarding `CCCc1nc2ccc(Cl)cc2n1Cc1ccc(-c2ccccc2-c2nnn[nH]2)cc1`, the pIC50 against Peptide deformylase [2] is 5.41.

Compound `N#Cc1ccccc1-c1ccc(CNc2ccc(C(=O)O)cc2)cc1` gave a pIC50 on Peptide deformylase [1] of 4.29. Also, the values for the MIC against Escherichia coli and against Bacillus subtilis were 32.6 µg/mL (≈ 99.2 µM) and 26.8 µg/mL (≈ 81.5 µM), respectively.

With `COc1ccc2nc(NCc3ccc(-c4ccccc4C#N)cc3)sc2c1`, on Peptide deformylase [1], the pIC50 is 4.56. Moreover, the MIC against Escherichia coli came to 35.2 µg/mL (≈ 94.9 µM); against Bacillus subtilis it was 36.2 µg/mL (≈ 97.6 µM).

On to `N#Cc1ccccc1-c1ccc(CNc2ccc(Cl)cc2[N+](=O)[O-])cc1`, for which the pIC50 against Peptide deformylase [1] is 4.55. Further, the figures for the MIC in the assay with Escherichia coli and against Bacillus subtilis were 45.6 µg/mL (≈ 125 µM) and 27.2 µg/mL (≈ 74.7 µM), respectively.

`CCCC1=NC2C(C)=CC(C)=NN2C1Cc1ccc(-c2ccccc2C(=O)O)cc1` (configuration not stated) had a pIC50 against Peptide deformylase [2] of 4.64.

The compound `O=C(O)c1cn(C2CC2)c2cc(N3CCNCC3)c(F)cc2c1=O` [CIPROFLOXACIN] came in with an MIC in the assay on Escherichia coli of 25 µg/mL (≈ 75.4 µM).
